Laboratory results reported in patent US5411956A, “Lipolytic enzyme inhibitors” (Nisshin Flour Milling Co., Ltd., priority 1989, dated 1995).

Tests used:
[1] = target: T1, porcine pancreatic lipase (Sus scrofa, UniProt P00591); assay: Assay of lipase inhibitory activity (olive oil emulsion with sodium cholate, Tris buffer); type: biochemical
T1 construct: purchased Sigma Co., Ltd
T1 sequence (P00591 1-450): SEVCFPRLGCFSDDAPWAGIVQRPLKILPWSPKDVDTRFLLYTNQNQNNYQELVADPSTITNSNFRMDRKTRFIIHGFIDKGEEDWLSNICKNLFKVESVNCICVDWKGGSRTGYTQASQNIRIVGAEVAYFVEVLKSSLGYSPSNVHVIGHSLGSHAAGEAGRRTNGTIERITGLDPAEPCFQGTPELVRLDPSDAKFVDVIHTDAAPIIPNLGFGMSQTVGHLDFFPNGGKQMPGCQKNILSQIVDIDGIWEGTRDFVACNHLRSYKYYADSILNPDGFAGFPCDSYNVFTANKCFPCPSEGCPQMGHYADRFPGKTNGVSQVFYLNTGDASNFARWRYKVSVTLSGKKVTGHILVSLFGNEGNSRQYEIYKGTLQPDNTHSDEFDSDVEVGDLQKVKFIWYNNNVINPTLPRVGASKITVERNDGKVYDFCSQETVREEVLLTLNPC
Procedure: 250 mg of an olive oil, 21.5 mg of sodium cholate as a bile acid component and 30 mg of phosphatidylcholine were added to 5 ml of a 200 mM Tris buffer solution at pH 6.8 (called hereafter "Tris buffer").
(§1) The mixture was ultrasonicated to prepare an olive oil emulsion.
Porcine pancreatic lipase (manufactured by Sigma Co., Ltd.) was added to Tris buffer to prepare an enzyme solution containing 100 units porcine pancreatic lipase per ml.
(§2) The control and six test samples were prepared in the following manner.
(§3) 100 μl of an olive oil emulsion as prepared above were used as a substrate.
(§4) 50 μl of Tris buffer was added to the substrate to prepare an emulsion for control sample. […] All of the emulsions were incubated for 5 min. To each of those emulsions was added 50 μl of the lipase solution as prepared above. The resulting mixture was incubated at 37° C. for one hour, subsequently to which were added 3 ml of the same extraction solvent as used in Example 1. After being shaken for 5 min., the mixture was centrifuged at 3000 rpm for 5 min. The upper layer was removed with an aspirator and to the remaining solution was added 1 ml of the same copper reagent as used in Example 1. The mixture was shaken for 5 min. and centrifuged at 3000 rpm for 5 min. 0.5 ml of a solution was taken from the upper layer and to the solution was added 0.5 ml of the same color developing agent as used in Example 1.
(§5) The resulting solutions for control and test samples were measured for the absorbance at 480 nm (A480) using a photometer to determine the amount of the free fatty acids as formed, i.e., the activity of the porcine pancreatic lipase.
100 μl of an olive oil emulsion prepared in the same way as in Example 4 were used as a substrate.
50 μl of Tris buffer was added to the substrate to prepare an emulsion for control sample. Each 50 μl of the polypeptide-containing solutions as prepared above was added to 100 μl of the substrate to prepare two emulsions for test sample. After incubating the emulsions for 5 min., there was added 50 μl of the enzyme solution prepared in the same way as in Example 4.
Further, the incubated mixture was treated and measured for the activity of porcine pancreatic lipase in the same way as in Example 4.
Lysine oligomers having a degree of polymerization of 2-5 as shown in Table 6 below were prepared using a peptide synthesizer (Biolynx 4170, LKB-Pharmacia Co., Ltd.). Each of the oligomers was purified by high performance liquid chromatography. Each of the purified oligomers was added to distilled water to make up to 1 μmol/ml. […] lysine oligomer-containing solutions were thus prepared.
50 μl of Tris buffer was added to the substrate to prepare an emulsion for control sample. […] After incubating the emulsions for 5 min., there was added 50 μl of a lipase solution containing 100 units of porcine pancreatic lipase per ml as prepared in the same way as in Example 4.

[2] = target: T1, porcine pancreatic lipase; assay: Assay of lipase inhibitory activity of proteins (olive oil emulsion with sodium cholate, potassium phosphate buffer); type: biochemical; settings: for Activity of porcine pancreatic lipase (%): 4 mg/ml protein solution, percentage of control Abs480, sodium cholate present, potassium phosphate buffer pH 6.8, 37 °C, one hour
Procedure: 250 mg of an olive oil, 21.5 mg of sodium cholate as a bile acid component and 30 mg of phosphatidylcholine were added to 5 ml of a 300 mM potassium phosphate buffer solution at pH 6.8 (called hereafter "potassium phosphate buffer").
as §1
Porcine pancreatic lipase (manufactured by Sigma Co., Ltd.) was added to the potassium phosphate buffer solution to prepare a lipase solution containing 100 units porcine pancreatic lipase per ml.
as §2, §3
50 μl of potassium phosphate buffer was added to the substrate to prepare an emulsion for control sample. Each 50 μl of the protein(polypeptide)-containing solutions as prepared above was added to 100 μl of the substrate to prepare six emulsions for test samples. All of the emulsions were incubated for 5 min. To each of those emulsions was added 50 μl of the lipase solution as prepared above. The resulting mixture was incubated at 37 ° C. for one hour, subsequently to which were added 3 ml of an extraction solvent (chloroform:methanol:n-heptane=49:1:49). After being shaken for 5 min., the mixture was centrifuged at 3000 rpm for 5 min. The upper layer was removed with an aspirator and to the remaining solution was added 1 ml of a copper reagent (0.45M triethanol amine, 0.05N acetic acid, 3.4% copper sulfate pentahydrate and 20% sodium chloride). The mixture was shaken for 5 min. and centrifuged at 3000 rpm for 5 min. 0.5 ml of a solution was taken from the upper layer and to the solution was added 0.5 ml of a color developing agent (a solution of 0.1% bathocuproine and 0.05% butyl hydroxyanisole in the above extraction solvent).
as §5

[3] = tested on: cholesterol esterase isolated from porcine pancreas; settings: 4 mg/ml protein solution; percentage of control Abs480; sodium cholate present; 37 °C, one hour
Procedure: as §3
as §4, with “potassium phosphate” for “Tris”

[4] = Serum triglyceride concentration in rats after oral corn oil emulsion; type: in vivo, SD male rats; settings: 2 ml corn oil emulsion + 100 mg ε-poly-L-lysine/dextrin 1:1, relative to pre-dose (0)
Procedure: Two groups of 10 SD male rats (9 weeks age, 200 g average bodyweight) were prepared.
50 g of corn oil, 6 g of yolk lecithine and 12.5 g of glycerol were added to distilled water to make up to 100 ml. The mixture was ultrasonicated to prepare an emulsion.
The rats of first group were each given 2 ml of the emulsion and 100 mg of ε-poly-L-lysine manufactured by Chisso Corp. (containing dextrin and ε-poly-L-lysine at a weight ratio of 1:1 and having formula (I) wherein n is ca. 30), orally using a gastric probe. Blood was drawn at predetermined intervals from the tail vein, and serum triglyceride concentration was measured using Kyowa Medics enzyme Kit TG, determined for mean value (mg/dl) per animal and calculated on the basis of serum triglyceride concentration prior to administration (taken as 0 mg/dl) (According to the invention).
The rats of second group were orally given 2 ml of the emulsion and 50 mg of dextrin. Serum triglyceride concentration was measured at predetermined intervals, determined for the average value and calculated in the same way as above (Comparative example).

[5] = 1 mg per 10 ml Tris buffer solution, pH 6.8, sodium cholate present, percentage of control Abs480
[6] = 1 mg/ml peptide solution in distilled water, Tris buffer system as Example 4

## Protamine
[1]; [5]
  Activity of porcine pancreatic lipase (%): 1.3%

## α-poly-D-lysine hydrobromide
[1]; [6]
  Activity of porcine pancreatic lipase (%): 1.1%

## α-poly-L-lysine hydrochloride
[1]; [5]
  Activity of porcine pancreatic lipase (%): 6.9%
[1]; [6]
  Activity of porcine pancreatic lipase (%): 1.6%

## β-Lactoglobulin: β-lactoglobulin (L0130, Sigma Co., Ltd.), not a basic protein [reference compound]
[2]
  Activity of porcine pancreatic lipase (%): 103.9%
[3]
  Activity of cholesterol esterase (%): 89.9%

## β-Purothionin: purified β-purothionin (SEQ ID NO: 3) isolated from the crude wheat purothionin mixture (KSCCKSTLGRNCYNLCRARGAQKLCANVCRCKLTSGLSCPKDFPK)
[2]
  Activity of porcine pancreatic lipase (%): 0%
[2]; concentration of 0.04 mg/ml, separate experiment in a similar manner
  Activity of porcine pancreatic lipase: 5.2%
[2]; protein solution diluted to 0.2 mg/ml, otherwise as Example 1
  Lipase activity: 0%
[1]; [5]
  Activity of porcine pancreatic lipase (%): 1.3%

## ε-poly-L-lysine
[4]; 1 hr after oral administration
  Blood concentration of neutral fats: 53.3 ± 2.5 mg/dL
[4]; 2 hrs after oral administration
  Blood concentration of neutral fats: 32.4 ± 4.9 mg/dL
[4]; 3 hrs after oral administration
  Blood concentration of neutral fats: 16.7 ± 3.2 mg/dL
[4]; 4 hrs after oral administration
  Blood concentration of neutral fats: 11.1 ± 3.0 mg/dL
[4]; 7 hrs after oral administration
  Blood concentration of neutral fats: 4.2 ± 1.0 mg/dL

B1: Ovalbumin: ovalbumin (A5503, Sigma Co., Ltd.), not a basic protein (protein, UniProt P01012 2-386, looked up)
Ovalbumin: GSIGAASMEFCFDVFKELKVHHANENIFYCPIAIMSALAMVYLGAKDSTRTQINKVVRFDKLPGFGDSIEAQCGTSVNVHSSLRDILNQITKPNDVYSFSLASRLYAEERYPILPEYLQCVKELYRGGLEPINFQTAADQARELINSWVESQTNGIIRNVLQPSSVDSQTAMVLVNAIVFKGLWEKAFKDEDTQAMPFRVTEQESKPVQMMYQIGLFRVASMASEKMKILELPFASGTMSMLVLLPDEVSGLEQLESIINFEKLTEWTSSNVMEERKIKVYLPRMKMEEKYNLTSVLMAMGITDVFSSSANLSGISSAESLKISQAVHAAHAEINEAGREVVGSAEAGVDAASVSEEFRADHPFLFCIKHIATNAVLFFGRCVSP
[2]
  Activity of porcine pancreatic lipase (%): 107.0%
[3]
  Activity of cholesterol esterase (%): 93.6%
